Data published in patent publication US20230167118A1, “DEGRADATION OF BRUTON'S TYROSINE KINASE (BTK) BY CONJUGATION OF BTK INIDBITORS WITH E3 LIGASE LIGAND AND METHODS OF USE” (BEIGENE, LTD., priority 2020, published 2023).

What was measured:
BTK = molecular target: T1, BTK (Homo sapiens, UniProt Q06187); experiment: Cell Degradation: BTK degradation in TMD-8 cells, HTRF assay; format: cell-based; settings: 6 h treatment, IC50 (DC50) of BTK degradation
T1 construct: High control=Cell group with added DMSO and without compound, indicating microplate readings without BTK degradation; endogenous in cells; host or cells: TMD-8 cells
T1 sequence (Q06187 whole entry): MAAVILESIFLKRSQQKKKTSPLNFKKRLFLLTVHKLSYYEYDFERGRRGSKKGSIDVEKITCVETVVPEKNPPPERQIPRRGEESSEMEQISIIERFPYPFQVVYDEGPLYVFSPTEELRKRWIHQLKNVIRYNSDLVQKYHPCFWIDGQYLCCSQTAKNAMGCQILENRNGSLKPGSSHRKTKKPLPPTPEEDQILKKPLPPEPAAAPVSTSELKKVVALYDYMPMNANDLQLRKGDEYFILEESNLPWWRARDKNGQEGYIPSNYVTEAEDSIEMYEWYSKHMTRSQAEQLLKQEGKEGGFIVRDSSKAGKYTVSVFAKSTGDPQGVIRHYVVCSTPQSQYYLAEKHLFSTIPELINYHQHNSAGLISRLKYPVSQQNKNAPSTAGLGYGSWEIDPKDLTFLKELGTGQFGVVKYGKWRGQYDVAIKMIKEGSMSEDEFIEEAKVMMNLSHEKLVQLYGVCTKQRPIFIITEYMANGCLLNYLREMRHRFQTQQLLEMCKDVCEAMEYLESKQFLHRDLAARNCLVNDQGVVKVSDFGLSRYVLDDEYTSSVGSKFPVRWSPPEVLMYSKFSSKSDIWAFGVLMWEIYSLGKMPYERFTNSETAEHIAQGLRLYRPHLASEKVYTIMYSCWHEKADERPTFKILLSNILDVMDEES
Summary of the method: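 TMD-8 cells treated 6 h with 8-dose 6-fold dilutions in 0.2% DMSO, then lysed and BTK quantified by HTRF (665/620 nm). Degradation % normalised to high/low controls; DC50 from four-parameter fit, Dmax as maximal degradation.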

HEK-293 cells = experiment: HEK-293 Cytotoxicity Assay (CellTiter-Glo); format: cell-based; settings: Homo sapiens, HEK293, 72 h incubation, CellTiter-Glo luminescence
Summary of the method: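 HEK-293 cells treated 72 h with 8 concentrations (4-fold dilutions, 0.2% DMSO final). Viability read by CellTiter-Glo luminescence; IC50 from four-parameter logistic fit of % inhibition.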

Structure (SMILES)	DC50 (BTK) [nM]	IC50 (HEK-293 cells) [nM]
Cc1cc(-c2ncnc3[nH]c(-c4ccc(N5CCN(CC6CCN(c7ccc(N8CCC(=O)NC8=O)c(C)c7)CC6)CC5)nc4)cc23)ccc1[C@@H](C)NC(=O)c1noc(C2(C)CC2)n1 [Example 126, (R)-N-(1-(4-(6-(6-(4-((1-(4-(2,4-dioxotetrahydropyrimidin-1(2H)-yl)-3-methylphenyl)piperidin-4-yl)methyl)piperazin-1-yl)pyridin-3-yl)-7H-pyrrolo[2,3-d]pyrimidin-4-yl)-2-methylphenyl)ethyl)-5-(1-methylcyclopropyl)-1,2,4-oxadiazole-3-carboxamide]	0.41	> 10000
Cc1cc(-c2ncnc3[nH]c(-c4ncc(N5CCN(CC6CCN(c7ccc(N8CCC(=O)NC8=O)cc7)CC6)CC5)s4)cc23)ccc1[C@@H](C)NC(=O)c1nc(C(C)(C)C)no1 [Example 186, (R)-3-(tert-butyl)-N-(1-(4-(6-(5-(4-((1-(4-(2,4-dioxotetrahydropyrimidin-1(2H)-yl)phenyl)piperidin-4-yl)methyl)piperazin-1-yl)thiazol-2-yl)-7H-pyrrolo[2,3-d]pyrimidin-4-yl)-2-methylphenyl)ethyl)-1,2,4-oxadiazole-5-carboxamide]	1.04	> 10000
Cc1cc(-c2ncnc3[nH]c(-c4ccc(C5(F)CN(CC6CCN(c7ccc(N8CCC(=O)NC8=O)cc7)CC6)C5)cn4)cc23)ccc1[C@@H](C)NC(=O)c1nc(C(C)(C)C)no1 [Example 173, (R)-3-(tert-butyl)-N-(1-(4-(6-(5-(1-((1-(4-(2,4-dioxotetrahydropyrimidin-1(2H)-yl)phenyl)piperidin-4-yl)methyl)-3-fluoroazetidin-3-yl)pyridin-2-yl)-7H-pyrrolo[2,3-d]pyrimidin-4-yl)-2-methylphenyl)ethyl)-1,2,4-oxadiazole-5-carboxamide]	0.98	> 10000
Cc1cc(-c2ncnc3[nH]c(-c4ccc(C5CCN(CCC6CCN(c7ccc(N8CCC(=O)NC8=O)c(Cl)c7)CC6)CC5)cc4)cc23)ccc1CNC(=O)c1nc(C(C)(C)C)no1 [Example 24, 3-(tert-butyl)-N-(4-(6-(4-(1-(2-(1-(3-chloro-4-(2,4-dioxotetrahydropyrimidin-1(2H)-yl)phenyl)piperidin-4-yl)ethyl)piperidin-4-yl)phenyl)-7H-pyrrolo[2,3-d]pyrimidin-4-yl)-2-methylbenzyl)-1,2,4-oxadiazole-5-carboxamide]	4.8	4650
Cc1cc(-c2ncnc3[nH]c(-c4ccc(N5CCN(CC6CCN(c7ccc(N8CCC(=O)NC8=O)cc7)CC6)CC5)cc4)nc23)ccc1[C@@H](C)NC(=O)c1noc(C(C)(C)C)n1 [Example 68, (R)-5-(tert-butyl)-N-(1-(4-(8-(4-(4-((1-(4-(2,4-dioxotetrahydropyrimidin-1(2H)-yl)phenyl)piperidin-4-yl)methyl)piperazin-1-yl)phenyl)-9H-purin-6-yl)-2-methylphenyl)ethyl)-1,2,4-oxadiazole-3-carboxamide]	1.08	> 10000
Cc1cc(-c2ncnc3[nH]c(-c4cnc(N5CCN(CC6CCN(c7ccc(N8CCC(=O)NC8=O)cc7)CC6)CC5)s4)cc23)ccc1[C@@H](C)NC(=O)c1nc(C(C)(C)C)no1 [Example 168, (R)-3-(tert-butyl)-N-(1-(4-(6-(2-(4-((1-(4-(2,4-dioxotetrahydropyrimidin-1(2H)-yl)phenyl)piperidin-4-yl)methyl)piperazin-1-yl)thiazol-5-yl)-7H-pyrrolo[2,3-d]pyrimidin-4-yl)-2-methylphenyl)ethyl)-1,2,4-oxadiazole-5-carboxamide]	0.75	> 10000
